Data on 32 compounds can be found in patent publication US20090118332A1, “Therapeutic Agents - 551” (AstraZeneca AB, priority 2006, published 2009).

This assay has as its target T1, human Fatty Acid Synthase (Homo sapiens, UniProt P49327).
T1 construct: made in house
In words: Human FAS enzyme assay (decrease in NADPH fluorescence). Format: biochemical. To be noted: % inhibition at a concentration of 100 μmolar. An outline of the steps: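 In-house human FAS was preincubated with compound and NADPH for 15 min at room temperature in 0.1 M Tris pH 7.5 with EDTA, glutathione and BSA. Malonyl CoA and acetyl CoA (500 μM and 150 μM in the added mix) were then added for 60 min. IC50 came from time-zero-subtracted NADPH fluorescence (340/460 nm).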

T1 sequence (P49327 whole entry): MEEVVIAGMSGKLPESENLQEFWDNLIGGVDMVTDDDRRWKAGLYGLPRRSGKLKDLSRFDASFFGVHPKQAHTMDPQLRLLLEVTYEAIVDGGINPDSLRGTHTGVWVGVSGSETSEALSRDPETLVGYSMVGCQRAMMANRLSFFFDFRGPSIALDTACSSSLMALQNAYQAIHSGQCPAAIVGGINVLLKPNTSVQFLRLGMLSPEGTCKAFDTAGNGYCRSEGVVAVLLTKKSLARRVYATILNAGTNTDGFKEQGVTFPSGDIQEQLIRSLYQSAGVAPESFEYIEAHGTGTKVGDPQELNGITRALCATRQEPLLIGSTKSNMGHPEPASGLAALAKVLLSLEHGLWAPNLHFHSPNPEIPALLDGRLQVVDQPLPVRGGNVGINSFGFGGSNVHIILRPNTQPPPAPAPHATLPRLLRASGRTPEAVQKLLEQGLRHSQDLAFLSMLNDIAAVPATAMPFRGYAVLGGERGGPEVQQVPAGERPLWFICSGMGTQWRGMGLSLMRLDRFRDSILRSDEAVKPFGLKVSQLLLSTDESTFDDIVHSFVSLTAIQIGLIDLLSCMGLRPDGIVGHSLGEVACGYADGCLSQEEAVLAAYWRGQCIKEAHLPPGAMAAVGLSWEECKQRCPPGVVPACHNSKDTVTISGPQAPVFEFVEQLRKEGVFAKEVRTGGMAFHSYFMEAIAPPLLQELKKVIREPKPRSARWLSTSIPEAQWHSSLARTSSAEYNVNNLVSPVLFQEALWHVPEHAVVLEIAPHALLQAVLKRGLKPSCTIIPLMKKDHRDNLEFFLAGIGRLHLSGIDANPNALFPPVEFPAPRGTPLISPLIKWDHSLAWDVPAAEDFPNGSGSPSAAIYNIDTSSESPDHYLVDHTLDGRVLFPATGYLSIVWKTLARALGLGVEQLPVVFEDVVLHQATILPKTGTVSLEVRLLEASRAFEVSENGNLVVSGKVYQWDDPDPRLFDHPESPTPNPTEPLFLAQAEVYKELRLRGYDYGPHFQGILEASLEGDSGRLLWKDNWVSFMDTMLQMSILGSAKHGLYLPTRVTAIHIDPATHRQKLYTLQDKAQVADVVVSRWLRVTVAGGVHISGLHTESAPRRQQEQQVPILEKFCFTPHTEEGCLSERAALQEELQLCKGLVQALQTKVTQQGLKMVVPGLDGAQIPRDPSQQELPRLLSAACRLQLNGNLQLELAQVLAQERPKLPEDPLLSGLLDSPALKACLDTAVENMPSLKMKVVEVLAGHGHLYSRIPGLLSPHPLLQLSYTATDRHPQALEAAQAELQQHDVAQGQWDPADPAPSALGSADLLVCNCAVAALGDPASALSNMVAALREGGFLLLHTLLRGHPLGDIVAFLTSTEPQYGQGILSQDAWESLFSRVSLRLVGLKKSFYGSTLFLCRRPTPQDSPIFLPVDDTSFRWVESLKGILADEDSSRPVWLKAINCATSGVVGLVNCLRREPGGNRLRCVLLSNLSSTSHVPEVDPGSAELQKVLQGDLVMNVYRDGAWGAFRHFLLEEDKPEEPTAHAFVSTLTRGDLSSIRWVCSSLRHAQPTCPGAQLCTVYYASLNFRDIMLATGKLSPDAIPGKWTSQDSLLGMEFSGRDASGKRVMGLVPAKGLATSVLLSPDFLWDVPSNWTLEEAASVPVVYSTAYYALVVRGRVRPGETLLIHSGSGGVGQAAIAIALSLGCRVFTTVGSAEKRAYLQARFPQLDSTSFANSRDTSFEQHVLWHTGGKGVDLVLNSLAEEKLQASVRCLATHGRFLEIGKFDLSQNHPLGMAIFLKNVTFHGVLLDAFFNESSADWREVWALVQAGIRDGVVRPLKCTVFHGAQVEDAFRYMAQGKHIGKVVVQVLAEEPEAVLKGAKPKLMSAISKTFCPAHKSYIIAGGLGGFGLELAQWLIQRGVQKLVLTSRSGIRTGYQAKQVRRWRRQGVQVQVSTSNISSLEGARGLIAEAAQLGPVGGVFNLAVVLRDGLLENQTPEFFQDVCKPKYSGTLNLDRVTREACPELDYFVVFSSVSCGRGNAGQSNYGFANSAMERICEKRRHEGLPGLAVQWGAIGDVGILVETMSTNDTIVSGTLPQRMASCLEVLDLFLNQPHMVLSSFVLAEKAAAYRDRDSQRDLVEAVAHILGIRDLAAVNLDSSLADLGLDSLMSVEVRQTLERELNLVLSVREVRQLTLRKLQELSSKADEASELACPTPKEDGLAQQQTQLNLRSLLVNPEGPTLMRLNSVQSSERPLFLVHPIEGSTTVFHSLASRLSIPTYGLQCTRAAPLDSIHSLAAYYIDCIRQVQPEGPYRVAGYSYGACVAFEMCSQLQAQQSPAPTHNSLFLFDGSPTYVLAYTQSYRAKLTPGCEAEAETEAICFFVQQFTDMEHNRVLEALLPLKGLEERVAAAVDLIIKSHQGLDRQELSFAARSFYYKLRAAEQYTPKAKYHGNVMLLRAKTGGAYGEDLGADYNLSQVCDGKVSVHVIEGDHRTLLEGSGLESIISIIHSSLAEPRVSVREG

As for `Cc1ccc(C(=O)N2CCC(c3cccc(C#N)c3)CC2)cc1NC(=O)NC(C)C` [Example 327, 1-[5-[4-(3-cyanophenyl)piperidine-1-carbonyl]-2-methyl-phenyl]-3-propan-2-yl-urea], the inhibition (in general, the change of the read-out against control, counted positive when it falls) at 100 µM was determined as 93.1%.

As for `COc1ccc(C2CCN(C(=O)c3ccc(C)c(NC(=O)NC(C)C)c3)CC2)cc1` [Example 328, 1-[5-[4-(4-methoxyphenyl)piperidine-1-carbonyl]-2-methyl-phenyl]-3-propan-2-yl-urea], the inhibition at 100 µM came out at 86.7%.

For `CNC(=O)c1ccc(C2CCN(C(=O)c3ccc(C)c(NC(=O)NC(C)C)c3)CC2)cc1` [Example 329, N-methyl-4-[1-[4-methyl-3-(propan-2-ylcarbamoylamino)benzoyl]-4-piperidyl]benzamide], the inhibition at 100 µM came to 84.3%.

As for `CCOC(=O)N1CCN(C(=O)Nc2cc(C(=O)N3CCC(c4ccc(C#N)cc4)CC3)ccc2C)CC1` [Example 330, Ethyl 4-[[5-[4-(4-cyanophenyl)piperidine-1-carbonyl]-2-methyl-phenyl]carbamoyl]piperazine-1-carboxylate], the inhibition at 100 µM turned out to be 82.4%.

`Cc1ccc(C(=O)N2CCC(c3ccc(C#N)cc3)CC2)cc1NC(=O)N1CCN(C(=O)C(C)C)CC1` [Example 331, N-[5-[4-(4-cyanophenyl)piperidine-1-carbonyl]-2-methyl-phenyl]-4-(2-methylpropanoyl)piperazine-1-carboxamide]: the inhibition at 100 µM was found to be 84.2%.

Consider `Cc1ccc(C(=O)N2CCC(c3ccc(C#N)cc3)CC2)cc1NC(=O)N1CCN(C(=O)N(C)C)CC1` [Example 332, N-[5-[4-(4-cyanophenyl)piperidine-1-carbonyl]-2-methyl-phenyl]-N′,N′-dimethyl-piperazine-1,4-dicarboxamide], for which the inhibition at 100 µM worked out at 96.5%.

Turning to `Cc1ccc(C(=O)N2CCC(c3ccc(C(F)(F)F)cc3)CC2)cc1NC(=O)NC1CCCN(C(=O)OC(C)(C)C)C1` (centres unmarked) [Example 333, tert-butyl 3-[[2-methyl-5-[4-[4-(trifluoromethyl)phenyl]piperidine-1-carbonyl]phenyl]carbamoylamino]piperidine-1-carboxylate], the inhibition at 100 µM amounted to 90.9%.

Turning to `Cc1ccc(C(=O)N2CCC(c3ccc(C(F)(F)F)cc3)CC2)cc1NC(=O)NCCN(C)C` [Example 334, 3-(2-dimethylaminoethyl)-1-[2-methyl-5-[4-[4-(trifluoromethyl)phenyl]piperidine-1-carbonyl]phenyl]urea], the inhibition at 100 µM was found to be 92.6%.

On to `Cc1ccc(C(=O)N2CCC(c3ccc(C#N)cc3)CC2)cc1NC(=O)NC1(C)CCS(=O)(=O)C1` (centres unmarked) [Example 335, 1-[5-[4-(4-cyanophenyl)piperidine-1-carbonyl]-2-methyl-phenyl]-3-(3-methyl-1,1-dioxo-thiolan-3-yl)urea], for which the inhibition at 100 µM stood at 78.2%.

For the compound `Cc1ccc(C(=O)N2CCC(c3ccc(C(F)(F)F)cc3)CC2)cc1NC(=O)NCCNC(=O)OC(C)(C)C` [Example 336, tert-butyl N-[2-[[2-methyl-5-[4-[4-(trifluoromethyl)phenyl]piperidine-1-carbonyl]phenyl]carbamoylamino]ethyl]carbamate], the inhibition at 100 µM turned out to be 86.9%.

Turning to `Cc1ccc(C(=O)N2CCC(c3ccc(C(F)(F)F)cc3)CC2)cc1NC(=O)NC1CCCNC1` (centres unmarked) [Example 337, 1-[2-methyl-5-[4-[4-(trifluoromethyl)phenyl]piperidine-1-carbonyl]phenyl]-3-(3-piperidyl)urea], the inhibition at 100 µM turned out to be 90.1%.

As to `CC(=O)NCCNC(=O)Nc1cc(C(=O)N2CCC(c3ccc(F)cc3)CC2)ccc1C` [Example 338, N-[2-[[5-[4-(4-fluorophenyl)piperidine-1-carbonyl]-2-methyl-phenyl]carbamoylamino]ethyl]acetamide], the inhibition at 100 µM turned out to be 81.3%.

On to `Cc1ccc(C(=O)N2CCC(c3ccc(F)cc3)CC2)cc1NC(=O)NC1CN(C(=O)OC(C)(C)C)C1` [Example 339, tert-butyl 3-[[5-[4-(4-fluorophenyl)piperidine-1-carbonyl]-2-methyl-phenyl]carbamoylamino]azetidine-1-carboxylate], for which the inhibition at 100 µM is 81.3%.

Consider `Cc1ccc(C(=O)N2CCC(c3ccc(C(F)(F)F)cc3)CC2)cc1NC(=O)NCCNS(=O)(=O)N(C)C` [Example 340, 3-[2-(dimethylsulfamoylamino)ethyl]-1-[2-methyl-5-[4-[4-(trifluoromethyl)phenyl]piperidine-1-carbonyl]phenyl]urea], for which the inhibition at 100 µM was determined as 96%.

As for `Cc1ccc(C(=O)N2CCC(c3ccc(C(F)(F)F)cc3)CC2)cc1NC(=O)NCCNS(C)(=O)=O` [Example 341, 3-(2-methanesulfonamidoethyl)-1-[2-methyl-5-[4-[4-(trifluoromethyl)phenyl]piperidine-1-carbonyl]phenyl]urea], the inhibition at 100 µM worked out at 95.4%.

`Cc1ccc(C(=O)N2CCC(c3ccc(C(F)(F)F)cc3)CC2)cc1NC(=O)NCCN` [Example 342, 3-(2-aminoethyl)-1-[2-methyl-5-[4-[4-(trifluoromethyl)phenyl]piperidine-1-carbonyl]phenyl]urea]: the inhibition at 100 µM was 82.8%.

As to `Cc1ccc(C(=O)N2CCC(c3ccc(F)cc3)CC2)cc1NC(=O)NC1CCN(C(=O)OC(C)(C)C)C1` (centres unmarked) [Example 343, tert-butyl 3-[[5-[4-(4-fluorophenyl)piperidine-1-carbonyl]-2-methyl-phenyl]carbamoylamino]pyrrolidine-1-carboxylate], the inhibition at 100 µM came to 93.6%.

On to `Cc1ccc(C(=O)N2CCC(c3ccc(C#N)cc3)CC2)cc1NC(=O)N1CCC(S(C)(=O)=O)C1` (centres unmarked) [Example 344, N-[5-[4-(4-cyanophenyl)piperidine-1-carbonyl]-2-methyl-phenyl]-3-methylsulfonyl-pyrrolidine-1-carboxamide], for which the inhibition at 100 µM worked out at 112%.

As to `Cc1ccc(C(=O)N2CCC(c3ccc(C#N)cc3)CC2)cc1NC(=O)N1CC(O)C1` [Example 345, N-[5-[4-(4-cyanophenyl)piperidine-1-carbonyl]-2-methyl-phenyl]-3-hydroxy-azetidine-1-carboxamide], the inhibition at 100 µM turned out to be 96.5%.

`Cc1ccc(C(=O)N2CCC(c3ccc(C#N)cc3)CC2)cc1NC(=O)N1CCC1` [Example 346, N-[5-[4-(4-cyanophenyl)piperidine-1-carbonyl]-2-methyl-phenyl]azetidine-1-carboxamide]: the inhibition at 100 µM is 75.5%.

Take `Cc1ccc(C(=O)N2CCC(c3ccc(F)cc3)CC2)cc1NC(=O)NCCN(C)C(=O)OC(C)(C)C` [Example 347, tert-butyl N-[2-[[5-[4-(4-fluorophenyl)piperidine-1-carbonyl]-2-methyl-phenyl]carbamoylamino]ethyl]-N-methyl-carbamate]: the inhibition at 100 µM is 86.3%.

Consider `CC(=O)N1CCC(NC(=O)Nc2cc(C(=O)N3CCC(c4ccc(F)cc4)CC3)ccc2C)C1` (centres unmarked) [Example 348, 3-(1-acetylpyrrolidin-3-yl)-1-[5-[4-(4-fluorophenyl)piperidine-1-carbonyl]-2-methyl-phenyl]urea], for which the inhibition at 100 µM is 84.5%.

`Cc1ccc(C(=O)N2CCC(c3ccc(F)cc3)CC2)cc1NC(=O)NC1CCNC1` (centres unmarked) [Example 349, 1-[5-[4-(4-fluorophenyl)piperidine-1-carbonyl]-2-methyl-phenyl]-3-pyrrolidin-3-yl-urea]: the inhibition at 100 µM stood at 88.7%.

Turning to `Cc1ccc(C(=O)N2CCC(O)(c3ccc(Cl)cc3)CC2)cc1NC(=O)NC(C)C` [Example 350, 1-[5-[4-(4-chlorophenyl)-4-hydroxy-piperidine-1-carbonyl]-2-methyl-phenyl]-3-propan-2-yl-urea], the inhibition at 100 µM turned out to be 71.4%.

For `Cc1ccc(C(=O)N2CCC(c3ccc(F)cc3)CC2)cc1NC(=O)NCCN(C)S(C)(=O)=O` [Example 351, 1-[5-[4-(4-fluorophenyl)piperidine-1-carbonyl]-2-methyl-phenyl]-3-[2-(methyl-methylsulfonyl-amino)ethyl]urea], the inhibition at 100 µM was found to be 88.9%.

Consider `CC(=O)N(C)CCNC(=O)Nc1cc(C(=O)N2CCC(c3ccc(F)cc3)CC2)ccc1C` [Example 352, N-[2-[[5-[4-(4-fluorophenyl)piperidine-1-carbonyl]-2-methyl-phenyl]carbamoylamino]ethyl]-N-methyl-acetamide], for which the inhibition at 100 µM was 75.6%.

In the case of `CCC(=O)NCCN(C)C(=O)Nc1cc(C(=O)N2CCC(c3ccc(C#N)cc3)CC2)ccc1C` [Example 353, N-[2-[[5-[4-(4-cyanophenyl)piperidine-1-carbonyl]-2-methyl-phenyl]carbamoyl-methyl-amino]ethyl]propanamide], the inhibition at 100 µM was found to be 78.4%.

Consider `Cc1ccc(C(=O)N2CCC(c3ccc(C#N)cc3)CC2)cc1NC(=O)NC(C)c1cccnc1` (centres unmarked) [Example 354, 1-[5-[4-(4-cyanophenyl)piperidine-1-carbonyl]-2-methyl-phenyl]-3-(1-pyridin-3-ylethyl)urea], for which the inhibition at 100 µM came to 91.3%.

On to `Cc1ccc(C(=O)N2CCC(c3ccc(Cl)cc3)CC2)cc1NC(=O)NCc1ccccn1` [Example 355, 1-[5-[4-(4-chlorophenyl)piperidine-1-carbonyl]-2-methyl-phenyl]-3-(pyridin-2-ylmethyl)urea], for which the inhibition at 100 µM turned out to be 82.2%.

For `Cc1ccc(C(=O)N2CCC(c3ccc(C#N)cc3)CC2)cc1NC(=O)NCc1cnn(C)c1` [Example 356, 1-[5-[4-(4-cyanophenyl)piperidine-1-carbonyl]-2-methyl-phenyl]-3-[(1-methylpyrazol-4-yl)methyl]urea], the inhibition at 100 µM is 92.4%.

`Cc1ccc(C(=O)N2CCC(c3ccc(C#N)cc3)CC2)cc1NC(=O)NC(C)c1ccncc1` (centres unmarked) [Example 357, 1-[5-[4-(4-cyanophenyl)piperidine-1-carbonyl]-2-methyl-phenyl]-3-(1-pyridin-4-ylethyl)urea]: the inhibition at 100 µM was 102%.

`Cc1ccc(C(=O)N2CCC(c3ccc(C#N)cc3)CC2)cc1NC(=O)NCc1cccc(N2CCOCC2)n1` [Example 358, 1-[5-[4-(4-cyanophenyl)piperidine-1-carbonyl]-2-methyl-phenyl]-3-[(6-morpholin-4-ylpyridin-2-yl)methyl]urea]: the inhibition at 100 µM stood at 93.2%.
